Measured values as given in US7273848B2, “Apolipoprotein A-I agonists and their use to treat dyslipidemic disorders” (priority 1997, dated 2007).
Non-standard residues stand in square brackets, D forms with d. Residues, ends and D or L forms follow the SMILES beside them. No end group written: not given here. Orn = NCCC[C@H](N)C(=O)O; Aib = CC(C)(N)C(=O)O

What follows are molecules tested against T1, LCAT (purified from human plasma) (Homo sapiens, UniProt P04180) (assay: LCAT activation assay). Settings: LCAT activation as compared with native human ApoA-I (= 100%), equivalent masses.
T1 construct: from tissue; host or cells: human plasma
T1 sequence (P04180 25-440): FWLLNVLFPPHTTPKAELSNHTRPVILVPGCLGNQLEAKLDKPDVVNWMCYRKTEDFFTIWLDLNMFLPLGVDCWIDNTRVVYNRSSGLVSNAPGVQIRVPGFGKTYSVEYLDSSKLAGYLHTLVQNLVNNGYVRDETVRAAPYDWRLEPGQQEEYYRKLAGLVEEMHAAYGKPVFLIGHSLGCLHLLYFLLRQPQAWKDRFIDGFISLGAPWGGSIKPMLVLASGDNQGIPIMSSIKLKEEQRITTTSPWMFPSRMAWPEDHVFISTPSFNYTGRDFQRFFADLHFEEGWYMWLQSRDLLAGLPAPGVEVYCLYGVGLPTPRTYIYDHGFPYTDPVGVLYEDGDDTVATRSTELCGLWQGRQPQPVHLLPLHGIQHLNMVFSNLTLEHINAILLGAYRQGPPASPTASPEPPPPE
Type: biochemical
Summary of the method: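 Substrate SUVs of EPC or POPC with 14C-cholesterol (20:1 molar ratio), in 10 mM Tris, 0.14 M NaCl, 1 mM EDTA, pH 7.4, were preincubated with peptide or equal mass of plasma ApoA-I. Reaction started with human plasma LCAT; activation was measured as cholesterol-to-ester conversion relative to ApoA-I (100%).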

| Molecule | ACTIVITY (%) LCAT [%] |
| --- | --- |
| PVLDLFRELLNELLELLKQKLK [compound 127] | 47 |
| CC(C)C[C@H](NC(=O)[C@H](C)NC(=O)[C@H](CCC(=O)O)NC(=O)[C@H](CC(C)C)NC(=O)C(C)(C)NC(=O)[C@H](CCC(=O)O)NC(=O)[C@H](CC(N)=O)NC(=O)[C@H](CC(C)C)NC(=O)[C@H](CCCCN)NC(=O)[C@H](CCC(=O)O)NC(=O)[C@H](CCCNC(=N)N)NC(=O)[C@H](Cc1ccccc1)NC(=O)[C@H](CCCCN)NC(=O)[C@H](CC(=O)O)NC(=O)[C@H](CC(C)C)NC(=O)[C@@H](NC(=O)[C@@H]1CCCN1)C(C)C)C(=O)N[C@@H](CCCCN)C(=O)N[C@@H](CCC(N)=O)C(=O)N[C@@H](CCCCN)C(=O)N[C@@H](CC(C)C)C(=O)N[C@@H](CCCCN)C(=O)O [compound 74, PVLDKFREKLNEXLEALKQKLK] (H-PVLDKFREKLNE[Aib]LEALKQKLK-OH) | 10 |
| PVLDLFERLLNELLEALQKKLK [compound 80] | 9 |
| CC(C)C[C@H](NC(=O)[C@H](C)NC(=O)[C@H](CCC(=O)O)NC(=O)[C@H](CC(C)C)NC(=O)C(C)(C)NC(=O)[C@H](CCC(=O)O)NC(=O)[C@H](CC(N)=O)NC(=O)[C@H](CC(C)C)NC(=O)[C@H](CCCCN)NC(=O)[C@H](CCC(=O)O)NC(=O)[C@H](CCCNC(=N)N)NC(=O)[C@H](Cc1ccccc1)NC(=O)[C@H](CCC(=O)O)NC(=O)[C@H](CC(=O)O)NC(=O)[C@H](CC(C)C)NC(=O)[C@@H](N)C(C)C)C(=O)N[C@@H](CCCCN)C(=O)N[C@@H](CCC(N)=O)C(=O)N[C@@H](CCCCN)C(=O)N[C@@H](CC(C)C)C(=O)N[C@@H](CCCCN)C(=O)O [compound 65, ~VLDEFREKLNEXLEALKQKLK] (H-VLDEFREKLNE[Aib]LEALKQKLK-OH) | 15 |
| Ac-DVLDLFRELLEELKQKLK-NH2 [compound 221] | 12 |
| PVLELFENLLEKLLDALQKKLK [compound 169] | 17 |
| PVLDAFRELLEALLQLKK [compound 222] | 8 |
| CC(C)C[C@H](NC(=O)[C@H](C)NC(=O)[C@H](CC(=O)O)NC(=O)[C@H](CC(C)C)NC(=O)[C@H](CC(C)C)NC(=O)[C@H](CCCNC(=N)N)NC(=O)[C@H](CCC(=O)O)NC(=O)[C@H](CC(C)C)NC(=O)[C@H](CC(C)C)NC(=O)[C@H](CC(N)=O)NC(=O)[C@H](CCC(=O)O)NC(=O)[C@H](Cc1ccccc1)NC(=O)[C@H](CC(C)C)NC(=O)[C@H](CCC(=O)O)NC(=O)[C@H](CC(C)C)NC(=O)[C@@H](NC(=O)[C@@H]1CCCN1)C(C)C)C(=O)N[C@@H](CCC(N)=O)C(=O)N[C@@H](CCCN)C(=O)N[C@@H](CCCN)C(=O)N[C@@H](CC(C)C)C(=O)N[C@@H](CCCN)C(=O)O [compound 185, PVLELFENLLERLLDALQOOLO] (H-PVLELFENLLERLLDALQ[Orn][Orn]L[Orn]-OH) | 3 |
| PVLDLFRELGNELLEALKQKLK [peptide 9] | 83 |
| Ac-EWLEAFYKKVLEKLKELF-NH2 [compound 239, reference compound] | 11 |
| PVLELFENLLERLLDLLQKKLK [compound 165] | 23 |
| PLLELFKELLQELLEALKQKLK [peptide 23] | 54 |
| CC(C)C[C@H](NC(=O)[C@H](C)NC(=O)[C@H](CCC(=O)O)NC(=O)[C@H](CC(C)C)NC(=O)C(C)(C)NC(=O)[C@H](CCCCN)NC(=O)[C@H](CC(N)=O)NC(=O)[C@H](CC(C)C)NC(=O)[C@H](CCCCN)NC(=O)[C@H](CCC(=O)O)NC(=O)[C@H](CCCNC(=N)N)NC(=O)[C@H](Cc1ccccc1)NC(=O)[C@H](CCC(=O)O)NC(=O)[C@H](CC(=O)O)NC(=O)[C@H](CC(C)C)NC(=O)[C@@H](NC(=O)[C@@H]1CCCN1)C(C)C)C(=O)N[C@@H](CCCCN)C(=O)N[C@@H](CCC(N)=O)C(=O)N[C@@H](CCCCN)C(=O)N[C@@H](CC(C)C)C(=O)N[C@@H](CCCCN)C(=O)O [compound 77, PVLDEFREKLNKXLEALKQKLK] (H-PVLDEFREKLNK[Aib]LEALKQKLK-OH) | 9 |
| PVLDLFREKLNEELEALKQKLK [compound 106] | 0 |
| CC(C)C[C@H](NC(=O)[C@H](C)NC(=O)[C@H](CCC(=O)O)NC(=O)C(C)(C)NC(=O)[C@H](CC(C)C)NC(=O)[C@H](CCC(=O)O)NC(=O)[C@H](CC(N)=O)NC(=O)[C@H](CC(C)C)NC(=O)[C@H](CCCCN)NC(=O)[C@H](CCC(=O)O)NC(=O)[C@H](CCCNC(=N)N)NC(=O)[C@H](Cc1ccccc1)NC(=O)[C@H](CCC(=O)O)NC(=O)[C@H](CC(=O)O)NC(=O)[C@H](CC(C)C)NC(=O)[C@@H](NC(=O)[C@@H]1CCCN1)C(C)C)C(=O)N[C@@H](CCCCN)C(=O)N[C@@H](CCC(N)=O)C(=O)N[C@@H](CCCCN)C(=O)N[C@@H](CC(C)C)C(=O)N[C@@H](CCCCN)C(=O)O [compound 71, PVLDEFREKLNELXEALKQKLK] (H-PVLDEFREKLNEL[Aib]EALKQKLK-OH) | 11 |
| PVLELFDNLLERLLDALQKKLK [compound 179] | 8 |
| PVLDLFRELLNELLEGLKQKLK [compound 22] | 54 |

| Molecule | ACTIVITY (%) LCAT [%] |
| --- | --- |
| PVLDEFREKLNELLEALKQKLK [compound 84] | 7 |
| PVLELFKELLQELLEALKQKLK [compound 17] | 59 |
| PVLDLFREKLNELLEALKQKLK [compound 33] | 33 |
| Ac-PVLDLFRELLEEGKQKLK-NH2 [compound 229] | 0 |
| CC(C)C[C@H](NC(=O)[C@H](C)NC(=O)[C@H](CCC(=O)O)NC(=O)[C@H](CC(C)C)NC(=O)C(C)(C)NC(=O)[C@H](CC(C)C)NC(=O)[C@H](CC(N)=O)NC(=O)[C@H](CC(C)C)NC(=O)[C@H](CC(C)C)NC(=O)[C@H](CCC(=O)O)NC(=O)[C@H](CCCNC(=N)N)NC(=O)[C@H](Cc1ccccc1)NC(=O)[C@H](CC(C)C)NC(=O)[C@H](CC(=O)O)NC(=O)[C@H](CC(C)C)NC(=O)[C@@H](NC(=O)[C@@H]1CCCN1)C(C)C)C(=O)N[C@@H](CCCCN)C(=O)N[C@@H](CCC(N)=O)C(=O)N[C@@H](CCCCN)C(=O)N[C@@H](CC(C)C)C(=O)N[C@@H](CCCCN)C(=O)O [compound 95, PVLDLFRELLNLXLEALKQKLK] (H-PVLDLFRELLNL[Aib]LEALKQKLK-OH) | 5 |
| PVLELFENLLERWLDALQKKLK [compound 181] | 8 |
| CC(C)C[C@H](NC(=O)[C@H](C)NC(=O)[C@H](CCC(=O)O)NC(=O)[C@H](CO)NC(=O)C(C)(C)NC(=O)[C@H](CCC(=O)O)NC(=O)[C@H](CC(N)=O)NC(=O)[C@H](CC(C)C)NC(=O)[C@H](CCCCN)NC(=O)[C@H](CCC(=O)O)NC(=O)[C@H](CCCNC(=N)N)NC(=O)[C@H](Cc1ccccc1)NC(=O)[C@H](CCC(=O)O)NC(=O)[C@H](CC(=O)O)NC(=O)[C@H](CC(C)C)NC(=O)[C@@H](NC(=O)[C@@H]1CCCN1)C(C)C)C(=O)N[C@@H](CCCCN)C(=O)N[C@@H](CCC(N)=O)C(=O)N[C@@H](CCCCN)C(=O)N[C@@H](CC(C)C)C(=O)N[C@@H](CCCCN)C(=O)O [compound 112, PVLDEFREKLNEXSEALKQKLK] (H-PVLDEFREKLNE[Aib]SEALKQKLK-OH) | 0 |
| AVLDLFRELLNELLEALKQKLK [compound 29] | 39 |
| Ac-NVLDLFRELLEELKQKLK-NH2 [compound 200] | 75 |
| Ac-PVLDFFRELLEELKQKLK-NH2 [compound 204] | 63 |
| PVLDEFREKLNEELEALWQKLK [compound 121] | 0 |
| CC(C)C[C@H](NC(=O)[C@H](C)NC(=O)[C@H](CCC(=O)O)NC(=O)[C@H](CC(C)C)NC(=O)C(C)(C)NC(=O)[C@H](CC(C)C)NC(=O)[C@H](CC(N)=O)NC(=O)[C@H](CC(C)C)NC(=O)[C@H](CC(C)C)NC(=O)[C@H](CCC(=O)O)NC(=O)[C@H](CCCNC(=N)N)NC(=O)[C@H](Cc1ccccc1)NC(=O)[C@H](CC(C)C)NC(=O)[C@H](CC(=O)O)NC(=O)[C@H](CC(C)C)NC(=O)[C@@H](NC(=O)[C@@H]1CCCN1)C(C)C)C(=O)N[C@@H](CCCCN)C(=O)N[C@@H](CCC(=O)O)C(=O)N[C@@H](CCCCN)C(=O)N[C@@H](CC(C)C)C(=O)N[C@@H](CCCCN)C(=O)O [compound 102, PVLDLFRELLNLXLEALKEKLK] (H-PVLDLFRELLNL[Aib]LEALKEKLK-OH) | 2 |
| CC(C)C[C@H](NC(=O)[C@H](C)NC(=O)[C@H](CCC(=O)O)NC(=O)[C@H](CC(C)C)NC(=O)C(C)(C)NC(=O)[C@H](CCC(=O)O)NC(=O)[C@H](CC(N)=O)NC(=O)[C@H](CC(C)C)NC(=O)[C@H](CCCCN)NC(=O)[C@H](CCC(=O)O)NC(=O)[C@H](Cc1c[nH]c2ccccc12)NC(=O)[C@H](Cc1ccccc1)NC(=O)[C@H](CCC(=O)O)NC(=O)[C@H](CC(=O)O)NC(=O)[C@H](CC(C)C)NC(=O)[C@@H](NC(=O)[C@@H]1CCCN1)C(C)C)C(=O)N[C@@H](CCCCN)C(=O)N[C@@H](CCC(N)=O)C(=O)N[C@@H](CCCCN)C(=O)N[C@@H](CC(C)C)C(=O)N[C@@H](CCCCN)C(=O)O [compound 73, PVLDEFWEKLNEXLEALKQKLK] (H-PVLDEFWEKLNE[Aib]LEALKQKLK-OH) | 10 |
| PVLDLFRNLLEELLKALEQKLK [compound 57] | 18 |
| GVLDLFRELLNELLEALKQKLK [peptide 18] | 58 |
| Ac-PVLDLLRELLEELKQKLK-NH2 [compound 191] | 100 |

Same assay, conditions: LCAT activation as compared with native human ApoA-I (= 100%), equivalent masses; listed as N-acetylated, C-amidated peptide 18AM4

| Molecule | ACTIVITY (%) LCAT [%] |
| --- | --- |
| Ac-EWLEAFYKKVLEKLKELF-NH2 [compound 239, reference compound] | < 11 |
